ChEMBL document CHEMBL5360634, “Turonicin A, an Antifungal Linear Polyene Polyketide from an Australian Streptomyces sp” (J Nat Prod, 2023)
≈ marks a conversion by molar mass, not a printed value.

Tests used:
[1] = Cytotoxicity against human NFF cells assessed as inhibition of cell growth measured after 48 hrs by resazurin staining based analysis; type: toxicity
[2] = Antiproliferative activity against mouse NS-1 cells assessed as inhibition of cell growth measured after 48 hrs by resazurin staining based analysis; type: functional; settings: NS1, 48 h
Tritrichomonas foetus = experiment: Antiprotozoal activity against Tritrichomonas foetus KV-1 strain assessed as inhibition of protozoal growth measured after 72 hrs under anaerobic conditions; type: functional, organism-based; settings: KV-1, 72 h
Candida albicans = experiment: Antifungal activity against Candida albicans ATCC 10231 assessed as reduction in fungal growth measured after 48 hrs by resazurin staining based analysis; type: functional
Saccharomyces cerevisiae = experiment: Antifungal activity against Saccharomyces cerevisiae assessed as reduction in fungal growth measured after 48 hrs by resazurin staining based analysis; type: functional
Staphylococcus aureus = experiment: Antibacterial activity against Staphylococcus aureus assessed as inhibition of bacterial growth measured after 48 hrs by resazurin staining based analysis; type: functional
Bacillus subtilis = experiment: Antibacterial activity against Bacillus subtilis ATCC 6633 assessed as inhibition of bacterial growth measured after 48 hrs by resazurin staining based analysis; type: functional

Structure (SMILES) | IC50 at 48 h [1] [µM] | IC50 [2] [µM] | IC50 (Tritrichomonas foetus) [µM] | MIC (Candida albicans) [µg/mL] | MIC (Saccharomyces cerevisiae) [µg/mL] | MIC (Staphylococcus aureus) [µg/mL] | MIC (Bacillus subtilis) [µg/mL]
CSC[S@+]([O-])C[C@H](CO)NC(=O)/C=C/c1c(C)[nH]c(=O)[nH]c1=O | 1.2 | 0.4 |  |  |  |  | 
C\C(=C/C=C/C=C/C=C/C=C/CC/C=C/[C@H](C)[C@H](O)[C@@H](C)[C@H](O)/C=C/C=C/C=C/C=C/C=C/C[C@H](O)[C@H](C)C(=O)C[C@H](O)C[C@H](O)C[C@H](O)/C=C/C[C@@H](O)C[C@H](O)C[C@@H](O)C[C@H](O)/C=C/C[C@H](O)/C=C/C[C@H](O)C[C@H](O)CCCN)C(=O)O | > 80 | > 80 | > 80 | 0.0008 (≈ 0.000686 µM) | 0.0002 (≈ 0.000171 µM) | 1.5 (≈ 1.29 µM) | 0.097 (≈ 0.0832 µM)
C\C(=C/C=C/C=C/C=C/CC/C=C/[C@H](C)[C@H](O)[C@@H](C)[C@H](O)/C=C/C=C/C=C/C=C/C=C/C[C@H](O)[C@H](C)C(=O)C[C@H](O)C[C@H](O)C[C@H](O)/C=C/C[C@@H](O)C[C@H](O)C[C@@H](O)C[C@H](O)/C=C/C[C@H](O)/C=C/C[C@H](O)CCCNC(=N)N)C(=O)O | > 80 | 44 | > 80 | 0.0031 (≈ 0.00272 µM) | 0.0008 (≈ 0.000703 µM) | 0.39 (≈ 0.343 µM) | 0.097 (≈ 0.0852 µM)
C\C(=C/C=C/C=C/C=C/CC/C=C/[C@H](C)[C@H](O)[C@@H](C)[C@H](O)/C=C/C=C/C=C/C=C/C=C/C[C@H](O)[C@H](C)C(=O)C[C@H](O)C[C@H](O)C[C@H](O)/C=C/C[C@@H](O)C[C@H](O)C[C@@H](O)C[C@H](O)/C=C/C[C@H](O)/C=C/C[C@H](O)C[C@H](O)CCCN)C(=O)O | > 80 | > 80 | > 80 | 0.0015 (≈ 0.00132 µM) | 0.0004 (≈ 0.000351 µM) | 3.1 (≈ 2.72 µM) | 0.39 (≈ 0.342 µM)
Clc1ccccc1C(c1ccccc1)(c1ccccc1)n1ccnc1 [CLOTRIMAZOLE] |  |  |  | 0.1 (≈ 0.29 µM) | 0.4 (≈ 1.16 µM) |  | 
Cc1ncc([N+](=O)[O-])n1CCO [METRONIDAZOLE] |  |  | 0.9 |  |  |  | 
CN[C@H](CC(C)C)C(=O)N[C@H]1C(=O)N[C@@H](CC(N)=O)C(=O)N[C@H]2C(=O)N[C@H]3C(=O)N[C@H](C(=O)N[C@H](C(=O)O)c4cc(O)cc(O)c4-c4cc3ccc4O)[C@H](O)c3ccc(c(Cl)c3)Oc3cc2cc(c3O[C@@H]2O[C@H](CO)[C@@H](O)[C@H](O)[C@H]2O[C@H]2C[C@](C)(N)[C@H](O)[C@H](C)O2)Oc2ccc(cc2Cl)[C@H]1O [VANCOMYCIN] |  |  |  |  |  | 0.8 (≈ 0.552 µM) | 0.05 (≈ 0.0345 µM)
